Experimental data reported in ChEMBL document CHEMBL5678804 (Cancer Cell, 2011).
pIC50: −log10 of the molar value.

Key:
[1] = target: Proto-oncogene tyrosine-protein kinase ROS (Homo sapiens, UniProt P08922); test: Inhibition of human wild type ROS using Poly(Ala,Glu,Lys,Tyr)6:2:5:1 as substrate preincubated for 2 hrs followed by ATP addition and measured every 2 mins for […] by spectrophotometric analysis
[2] = target: Mitogen-activated protein kinase 14 (Homo sapiens, UniProt Q16539); test: Inhibition of human wild type p38 alpha using ATF2 as substrate preincubated for 2 hrs followed by ATP addition and measured every 2 mins for […] by spectrophotometric analysis
[3] = target: Serine/threonine-protein kinase mTOR (Homo sapiens, UniProt P42345); test: Inhibition of human wild type mTOR using Casein as substrate preincubated for 2 hrs followed by ATP addition and measured every 2 mins for […] by spectrophotometric analysis
[4] = Toxicity in Balb/c mouse assessed as hindlimb paralysis; details: in vivo
Myotonin-protein kinase = Myotonin-protein kinase (Homo sapiens, UniProt Q09013); test: Inhibition of human wild type DMPK using bio-4xCHKT as substrate preincubated for 2 hrs followed by ATP addition and measured every 2 mins for […] by spectrophotometric analysis
[5] = target: Serine/threonine-protein kinase TBK1 (Homo sapiens, UniProt Q9UHD2); test: Inhibition of human wild type TBK1 using Casein as substrate preincubated for 2 hrs followed by ATP addition and measured every 2 mins for […] by spectrophotometric analysis
[6] = target: Casein kinase I isoform alpha (Homo sapiens, UniProt P48729); test: Inhibition of human wild type CK1 alpha using Casein as substrate preincubated for 2 hrs followed by ATP addition and measured every 2 mins for […] by spectrophotometric analysis
[7] = target: Death-associated protein kinase 1 (Homo sapiens, UniProt P53355); test: Inhibition of human wild type DAPK1 using RBER-GSK3([…] to […]) as substrate preincubated for 2 hrs followed by ATP addition and measured every 2 mins for […] by spectrophotometric analysis
[8] = target: MAP kinase-activated protein kinase 2 (Homo sapiens, UniProt P49137); test: Inhibition of human MK2 preincubated for 2 hrs followed by ATP addition and measured every 2 mins for […] by spectrophotometric analysis
[9] = target: RAC-alpha serine/threonine-protein kinase (Homo sapiens, UniProt P31749); test: Inhibition of human wild type AKT1 using RBER-GSK3([…] to […]) as substrate preincubated for 2 hrs followed by ATP addition and measured every 2 mins for […] by spectrophotometric analysis
[10] = target: Mitogen-activated protein kinase 1 (Homo sapiens, UniProt P28482); test: Inhibition of human wild type ERK2 using RBER-CHKtide as substrate preincubated for 2 hrs followed by ATP addition and measured every 2 mins for […] by spectrophotometric analysis
Ephrin type-B receptor 2 = Ephrin type-B receptor 2 (Homo sapiens, UniProt P29323); test: Inhibition of human wild type EPHB2 using PolyEY as substrate preincubated for 2 hrs followed by ATP addition and measured every 2 mins for […] by spectrophotometric analysis
[11] = target: Maternal embryonic leucine zipper kinase (Homo sapiens, UniProt Q14680); test: Inhibition of human wild type MELK using RBER-CHKtide as substrate preincubated for 2 hrs followed by ATP addition and measured every 2 mins for […] by spectrophotometric analysis
[12] = target: Tyrosine-protein kinase Srms (Homo sapiens, UniProt Q9H3Y6); test: Inhibition of human wild type SRMS using PolyEY as substrate preincubated for 2 hrs followed by ATP addition and measured every 2 mins for […] by spectrophotometric analysis
[13] = target: Protein kinase C gamma type (Homo sapiens, UniProt P05129); test: Inhibition of human wild type PKC gamma using 3xChocktide-PKC(19to 31) as substrate preincubated for 2 hrs followed by ATP addition and measured every 2 mins for […] by spectrophotometric analysis
[14] = target: NUAK family SNF1-like kinase 2 (Homo sapiens, UniProt Q9H093); test: Inhibition of human wild type SNARK using Histon H2B as substrate preincubated for 2 hrs followed by ATP addition and measured every 2 mins for […] by spectrophotometric analysis
[15] = target: Macrophage colony-stimulating factor 1 receptor (Homo sapiens, UniProt P07333); test: Inhibition of human wild type FMS using PolyEY as substrate preincubated for 2 hrs followed by ATP addition and measured every 2 mins for […] by spectrophotometric analysis
[16] = target: Serine/threonine-protein kinase D2 (Homo sapiens, UniProt Q9BZL6); test: Inhibition of human wild type PKD2 using RBER-CHKtide as substrate preincubated for 2 hrs followed by ATP addition and measured every 2 mins for […] by spectrophotometric analysis
[17] = target: Muscle, skeletal receptor tyrosine-protein kinase (Homo sapiens, UniProt O15146); test: Inhibition of human wild type MUSK using Poly(Ala,Glu,Lys,Tyr)6:2:5:1 as substrate preincubated for 2 hrs followed by ATP addition and measured every 2 mins for […] by spectrophotometric analysis
[18] = target: Receptor-interacting serine/threonine-protein kinase 2 (Homo sapiens, UniProt O43353); test: Inhibition of human wild type RIPK2 using RBER-CHKtide as substrate preincubated for 2 hrs followed by ATP addition and measured every 2 mins for […] by spectrophotometric analysis
[19] = target: Phosphorylase b kinase gamma catalytic chain, skeletal muscle/heart isoform (Homo sapiens, UniProt Q16816); test: Inhibition of human wild type PHKgamma1 using 3xChocktide-PKC([…]-[…]) as substrate preincubated for 2 hrs followed by ATP addition and measured every 2 mins for […] by spectrophotometric analysis
[20] = target: Tyrosine-protein kinase ZAP-70 (Homo sapiens, UniProt P43403); test: Inhibition of human wild type ZAP70 using PolyEY as substrate preincubated for 2 hrs followed by ATP addition and measured every 2 mins for […] by spectrophotometric analysis
SRSF protein kinase 3 = SRSF protein kinase 3 (Homo sapiens, UniProt Q9UPE1); test: Inhibition of human wild type MSSK1 using RBER-CHKtide as substrate preincubated for 2 hrs followed by ATP addition and measured every 2 mins for […] by spectrophotometric analysis
[21] = target: Mitogen-activated protein kinase kinase kinase 5 (Homo sapiens, UniProt Q99683); test: Inhibition of human wild type ASK1 using RBER-GSK3([…] to […]) as substrate preincubated for 2 hrs followed by ATP addition and measured every 2 mins for […] by spectrophotometric analysis
Focal adhesion kinase 1 = Focal adhesion kinase 1 (Homo sapiens, UniProt Q05397); test: Inhibition of human wild type FAK using PolyEY as substrate preincubated for 2 hrs followed by ATP addition and measured every 2 mins for […] by spectrophotometric analysis
[22] = target: Serine/threonine-protein kinase 17A (Homo sapiens, UniProt Q9UEE5); test: Inhibition of human wild type DRAK1 using RB-CTF as substrate preincubated for 2 hrs followed by ATP addition and measured every 2 mins for […] by spectrophotometric analysis
[23] = target: Tyrosine-protein kinase Mer (Homo sapiens, UniProt Q12866); test: Inhibition of human wild type MER using PolyEY as substrate preincubated for 2 hrs followed by ATP addition and measured every 2 mins for […] by spectrophotometric analysis
[24] = target: Interleukin-1 receptor-associated kinase 4 (Homo sapiens, UniProt Q9NWZ3); test: Inhibition of human wild type IRAK4 using RB-CTF as substrate preincubated for 2 hrs followed by ATP addition and measured every 2 mins for […] by spectrophotometric analysis
Chain of Interleukin-1 receptor-associated kinase 4 (Q9NWZ3 whole entry): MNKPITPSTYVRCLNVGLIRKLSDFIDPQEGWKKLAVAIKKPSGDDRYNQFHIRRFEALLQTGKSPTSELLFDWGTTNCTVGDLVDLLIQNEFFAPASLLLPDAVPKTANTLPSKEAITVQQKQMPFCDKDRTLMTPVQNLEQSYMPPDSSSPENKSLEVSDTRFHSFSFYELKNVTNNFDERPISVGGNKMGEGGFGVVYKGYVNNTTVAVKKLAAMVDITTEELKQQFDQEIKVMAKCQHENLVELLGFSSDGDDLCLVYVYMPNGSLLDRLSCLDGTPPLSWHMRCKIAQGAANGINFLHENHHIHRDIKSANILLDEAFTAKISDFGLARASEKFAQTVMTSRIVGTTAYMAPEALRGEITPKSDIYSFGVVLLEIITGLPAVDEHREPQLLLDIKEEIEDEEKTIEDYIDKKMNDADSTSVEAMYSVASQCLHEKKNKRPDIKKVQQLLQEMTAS

Chain of SRSF protein kinase 3 (Q9UPE1 whole entry): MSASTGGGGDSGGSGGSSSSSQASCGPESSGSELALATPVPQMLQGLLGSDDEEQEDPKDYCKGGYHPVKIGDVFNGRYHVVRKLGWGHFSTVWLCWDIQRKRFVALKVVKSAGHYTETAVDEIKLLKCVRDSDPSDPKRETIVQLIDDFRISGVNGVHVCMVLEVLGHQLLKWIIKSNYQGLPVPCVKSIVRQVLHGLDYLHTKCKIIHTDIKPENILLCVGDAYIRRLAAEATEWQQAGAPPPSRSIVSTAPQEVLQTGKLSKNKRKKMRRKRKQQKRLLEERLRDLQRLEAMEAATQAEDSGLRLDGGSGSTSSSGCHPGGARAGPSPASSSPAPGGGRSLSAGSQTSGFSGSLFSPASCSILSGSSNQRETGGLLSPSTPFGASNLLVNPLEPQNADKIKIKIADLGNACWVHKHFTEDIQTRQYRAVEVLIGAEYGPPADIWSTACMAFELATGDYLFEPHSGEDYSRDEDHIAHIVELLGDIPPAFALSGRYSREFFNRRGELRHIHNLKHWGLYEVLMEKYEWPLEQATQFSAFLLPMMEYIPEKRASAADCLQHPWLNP
Chain of Tyrosine-protein kinase ZAP-70 (P43403 whole entry): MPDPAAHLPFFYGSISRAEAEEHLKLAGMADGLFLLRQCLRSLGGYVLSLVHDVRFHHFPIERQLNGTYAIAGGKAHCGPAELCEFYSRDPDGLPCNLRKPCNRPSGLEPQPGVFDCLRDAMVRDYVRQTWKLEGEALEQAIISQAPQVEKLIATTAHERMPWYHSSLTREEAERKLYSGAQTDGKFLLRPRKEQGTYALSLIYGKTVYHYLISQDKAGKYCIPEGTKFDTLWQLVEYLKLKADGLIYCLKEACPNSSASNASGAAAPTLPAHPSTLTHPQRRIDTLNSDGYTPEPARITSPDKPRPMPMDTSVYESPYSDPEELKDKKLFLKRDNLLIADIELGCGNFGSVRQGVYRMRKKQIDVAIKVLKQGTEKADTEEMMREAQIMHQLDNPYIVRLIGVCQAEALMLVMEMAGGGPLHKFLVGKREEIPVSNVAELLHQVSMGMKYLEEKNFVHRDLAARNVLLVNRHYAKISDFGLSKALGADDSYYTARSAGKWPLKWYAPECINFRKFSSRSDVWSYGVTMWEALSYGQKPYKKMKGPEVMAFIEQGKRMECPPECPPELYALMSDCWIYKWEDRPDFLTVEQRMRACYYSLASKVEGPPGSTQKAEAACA
Chain of NUAK family SNF1-like kinase 2 (Q9H093 whole entry): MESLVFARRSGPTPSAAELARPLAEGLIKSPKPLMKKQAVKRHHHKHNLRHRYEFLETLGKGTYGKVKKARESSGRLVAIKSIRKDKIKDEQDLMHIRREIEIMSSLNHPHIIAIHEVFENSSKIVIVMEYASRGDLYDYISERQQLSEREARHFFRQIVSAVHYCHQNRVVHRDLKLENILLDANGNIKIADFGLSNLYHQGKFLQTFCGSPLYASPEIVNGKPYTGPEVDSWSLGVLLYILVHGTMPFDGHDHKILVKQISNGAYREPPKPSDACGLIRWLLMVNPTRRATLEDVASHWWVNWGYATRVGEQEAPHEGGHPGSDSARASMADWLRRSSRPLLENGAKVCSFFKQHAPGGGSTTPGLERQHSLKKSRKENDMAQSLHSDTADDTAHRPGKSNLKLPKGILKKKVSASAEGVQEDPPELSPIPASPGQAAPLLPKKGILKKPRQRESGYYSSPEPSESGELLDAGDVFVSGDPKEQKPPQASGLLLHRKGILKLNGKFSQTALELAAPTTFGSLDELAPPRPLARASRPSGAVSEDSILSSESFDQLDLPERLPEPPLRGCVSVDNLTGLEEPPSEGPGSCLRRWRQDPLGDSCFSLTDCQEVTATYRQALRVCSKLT
Chain of Myotonin-protein kinase (Q09013 whole entry): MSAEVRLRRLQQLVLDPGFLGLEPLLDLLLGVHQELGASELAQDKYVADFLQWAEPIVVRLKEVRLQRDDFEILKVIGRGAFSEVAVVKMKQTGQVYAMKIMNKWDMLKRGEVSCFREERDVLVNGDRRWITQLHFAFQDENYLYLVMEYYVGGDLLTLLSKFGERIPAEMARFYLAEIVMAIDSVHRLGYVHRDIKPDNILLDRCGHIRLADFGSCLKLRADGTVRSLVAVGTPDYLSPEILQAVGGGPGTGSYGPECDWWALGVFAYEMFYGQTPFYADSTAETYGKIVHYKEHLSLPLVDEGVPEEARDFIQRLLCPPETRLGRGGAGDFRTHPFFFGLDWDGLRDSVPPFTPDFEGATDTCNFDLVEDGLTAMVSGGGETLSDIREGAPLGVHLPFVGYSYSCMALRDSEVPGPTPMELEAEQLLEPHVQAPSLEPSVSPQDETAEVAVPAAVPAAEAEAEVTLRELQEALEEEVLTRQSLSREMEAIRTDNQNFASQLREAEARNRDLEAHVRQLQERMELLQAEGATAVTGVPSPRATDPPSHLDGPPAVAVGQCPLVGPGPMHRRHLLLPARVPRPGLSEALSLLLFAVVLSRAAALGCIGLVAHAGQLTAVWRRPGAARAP
Chain of Phosphorylase b kinase gamma catalytic chain, skeletal muscle/heart isoform (Q16816 whole entry, canonical isoform): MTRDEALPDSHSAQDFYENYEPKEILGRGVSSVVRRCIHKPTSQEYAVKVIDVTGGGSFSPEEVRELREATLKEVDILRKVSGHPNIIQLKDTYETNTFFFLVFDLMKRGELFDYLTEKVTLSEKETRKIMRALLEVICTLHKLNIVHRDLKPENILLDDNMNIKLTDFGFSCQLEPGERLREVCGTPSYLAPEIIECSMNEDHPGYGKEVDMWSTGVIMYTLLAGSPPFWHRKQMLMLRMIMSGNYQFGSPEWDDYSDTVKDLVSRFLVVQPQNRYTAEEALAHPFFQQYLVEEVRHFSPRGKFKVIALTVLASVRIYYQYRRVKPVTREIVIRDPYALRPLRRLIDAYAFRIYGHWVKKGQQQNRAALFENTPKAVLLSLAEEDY
Chain of Serine/threonine-protein kinase TBK1 (Q9UHD2 whole entry, canonical isoform): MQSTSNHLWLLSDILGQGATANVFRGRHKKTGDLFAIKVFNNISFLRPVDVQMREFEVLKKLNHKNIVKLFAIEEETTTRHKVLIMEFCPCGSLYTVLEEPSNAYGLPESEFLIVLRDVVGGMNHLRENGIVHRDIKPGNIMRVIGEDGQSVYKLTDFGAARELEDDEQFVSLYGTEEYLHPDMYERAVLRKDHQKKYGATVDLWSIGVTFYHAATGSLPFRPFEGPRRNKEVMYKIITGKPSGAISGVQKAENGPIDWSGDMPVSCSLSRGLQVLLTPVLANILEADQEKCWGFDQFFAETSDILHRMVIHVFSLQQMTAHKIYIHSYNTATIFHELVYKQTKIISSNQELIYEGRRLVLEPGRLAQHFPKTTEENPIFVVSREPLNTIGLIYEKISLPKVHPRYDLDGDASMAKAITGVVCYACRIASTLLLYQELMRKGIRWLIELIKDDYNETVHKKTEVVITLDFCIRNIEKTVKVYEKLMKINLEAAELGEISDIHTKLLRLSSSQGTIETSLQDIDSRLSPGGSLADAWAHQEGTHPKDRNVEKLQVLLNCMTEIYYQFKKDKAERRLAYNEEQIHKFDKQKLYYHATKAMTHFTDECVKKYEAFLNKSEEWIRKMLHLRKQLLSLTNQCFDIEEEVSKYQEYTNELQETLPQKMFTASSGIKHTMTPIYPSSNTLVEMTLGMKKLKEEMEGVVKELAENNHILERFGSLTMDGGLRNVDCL
Chain of Serine/threonine-protein kinase D2 (Q9BZL6 whole entry): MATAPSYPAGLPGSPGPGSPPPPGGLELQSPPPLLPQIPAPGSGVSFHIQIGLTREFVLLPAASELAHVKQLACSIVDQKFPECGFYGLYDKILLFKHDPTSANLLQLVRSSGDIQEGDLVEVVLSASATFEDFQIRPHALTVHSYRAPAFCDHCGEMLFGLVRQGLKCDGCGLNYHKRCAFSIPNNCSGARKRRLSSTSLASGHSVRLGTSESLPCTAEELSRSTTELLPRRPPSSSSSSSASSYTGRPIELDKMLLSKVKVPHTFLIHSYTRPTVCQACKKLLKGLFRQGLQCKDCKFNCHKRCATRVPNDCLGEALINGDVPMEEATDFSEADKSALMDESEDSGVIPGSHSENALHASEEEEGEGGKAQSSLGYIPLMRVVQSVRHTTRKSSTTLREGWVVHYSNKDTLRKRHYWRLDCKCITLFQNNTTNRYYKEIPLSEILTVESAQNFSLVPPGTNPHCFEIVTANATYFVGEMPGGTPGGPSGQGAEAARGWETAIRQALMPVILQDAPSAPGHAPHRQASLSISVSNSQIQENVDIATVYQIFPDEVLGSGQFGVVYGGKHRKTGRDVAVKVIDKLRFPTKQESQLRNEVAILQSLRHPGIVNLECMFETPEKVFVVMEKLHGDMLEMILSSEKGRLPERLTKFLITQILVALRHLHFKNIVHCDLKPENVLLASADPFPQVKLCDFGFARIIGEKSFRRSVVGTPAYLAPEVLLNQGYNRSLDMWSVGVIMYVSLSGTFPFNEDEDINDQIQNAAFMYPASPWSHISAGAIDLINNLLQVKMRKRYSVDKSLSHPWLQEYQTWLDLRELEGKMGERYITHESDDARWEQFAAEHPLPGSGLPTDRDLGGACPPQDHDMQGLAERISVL

Compound `CNC(=O)c1cc(Oc2ccc(NC(=O)Nc3cc(C(C)(C)C)nn3-c3ccc4ncccc4c3)c(F)c2)ccn1` [REBASTINIB] has a pIC50 [1] of 6.47, a pIC50 [2] of 6.96 and a pIC50 [3] of less than 6.00. The Activity [4] was “Toxic”, the pIC50 (Myotonin-protein kinase) was less than 6.00 and the pIC50 [5] was less than 6.00. The pIC50 [6] was less than 6.00, the pIC50 [7] was less than 6.00 and the pIC50 [8] was less than 6.00. It also gave a pIC50 [9] of less than 6.00, a pIC50 [10] of less than 6.00 and a pIC50 (Ephrin type-B receptor 2) of 6.51. It also gave a pIC50 [11] of less than 6.00, a pIC50 [12] of 6.43 and a pIC50 [13] of less than 6.00. For the same compound, the pIC50 [14] was less than 6.00, the pIC50 [15] was 6.21 and the pIC50 [16] was less than 6.00. The pIC50 [17] was less than 6.00, the pIC50 [18] was less than 6.00 and the pIC50 [19] was less than 6.00. The pIC50 [20] was less than 6.00, the pIC50 (SRSF protein kinase 3) was less than 6.00 and the pIC50 [21] was less than 6.00. For the same compound, the pIC50 (Focal adhesion kinase 1) was 6.60, the pIC50 [22] was less than 6.00 and the pIC50 [23] was 8.12. The pIC50 [24] was less than 6.00.
